According to PubChem BioAssay AID256 (DTP/NCI, 2004):
“And” between values parts separate entries of the source, which are not always exact repeats. Equal values may be shown once. Toxic doses and inconclusive results are not listed. The calls were made as follows: active = survival T/C of 150% or more; inactive = T/C below 125% in these data.

Tested on: CD2F1 mice, L1210 leukemia ip, survival T/C
Assay: NCI In Vivo Anticancer Drug Screen. Data for tumor model L1210 Leukemia (intraperitoneal) in CD2F1 (CDF1) mice
Settings: higher = longer survival
In short: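 Implant tumor; dose compound or vehicle; measure endpoint in both groups; report treated divided by control.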

[1] = endpoint: mean survival time, dose: 100.0 mg/kg/injection, schedule: Q01DX001 (ip), vehicle: saline with Tween-80
[2] = endpoint: mean survival time, dose: 100.0 mg/kg/injection, schedule: Q01DX009 (ip), vehicle: saline with Tween-80
[3] = endpoint: mean survival time, dose: 200.0 mg/kg/injection, schedule: Q01DX001 (ip), vehicle: saline with Tween-80
[4] = endpoint: mean survival time, dose: 200.0 mg/kg/injection, schedule: Q01DX009 (ip), vehicle: saline with Tween-80
[5] = endpoint: mean survival time, dose: 400.0 mg/kg/injection, schedule: Q01DX009 (ip), vehicle: saline with Tween-80
[6] = endpoint: mean survival time, dose: 50.0 mg/kg/injection, schedule: Q01DX009 (ip), vehicle: saline with Tween-80
[7] = endpoint: mean survival time, dose: 100.0 mg/kg/injection, schedule: Q01DX001 (ip), vehicle: saline
[8] = endpoint: mean survival time, dose: 200.0 mg/kg/injection, schedule: Q01DX001 (ip), vehicle: saline
[9] = endpoint: mean survival time, dose: 100.0 mg/kg/injection, schedule: Q01DX009 (ip), vehicle: saline
[10] = endpoint: mean survival time, dose: 200.0 mg/kg/injection, schedule: Q01DX009 (ip), vehicle: saline
[11] = endpoint: mean survival time, dose: 400.0 mg/kg/injection, schedule: Q01DX009 (ip), vehicle: saline
[12] = endpoint: mean survival time, dose: 50.0 mg/kg/injection, schedule: Q04DX002 (ip), vehicle: saline with Tween-80
[13] = endpoint: mean survival time, dose: 100.0 mg/kg/injection, schedule: Q04DX002 (ip), vehicle: saline with Tween-80
[14] = endpoint: mean survival time, dose: 200.0 mg/kg/injection, schedule: Q04DX002 (ip), vehicle: saline with Tween-80
[15] = endpoint: mean survival time, dose: 12.5 mg/kg/injection, schedule: Q01DX009 (ip), vehicle: water
[16] = endpoint: mean survival time, dose: 400.0 mg/kg/injection, schedule: Q01DX001 (ip), vehicle: saline with Tween-80
[17] = endpoint: mean survival time, dose: 400.0 mg/kg/injection, schedule: Q01DX001 (ip), vehicle: saline

Measured: T/C

CC(C)(C(=O)c1ccccc1)C(=O)c1ccccc1
inactive: endpoint: mean survival time, dose: 50.0 mg/kg/injection, schedule: Q01DX001 (ip), vehicle: saline with Tween-80 104 % of control | [1] 102 % of control | [2] 100 % of control | [3] 100 % of control | [4] 94 % of control | [5] 98 % of control

NCCSC(C[N+](=O)[O-])c1ccccc1Cl (stereo unspecified)
inactive: endpoint: median survival time, dose: 6.25 mg/kg/injection, schedule: Q01DX009 (ip), vehicle: saline 102 % of control | endpoint: median survival time, dose: 12.5 mg/kg/injection, schedule: Q01DX009 (ip), vehicle: saline 107 % of control | endpoint: median survival time, dose: 25.0 mg/kg/injection, schedule: Q01DX009 (ip), vehicle: saline 112 % of control | endpoint: median survival time, dose: 50.0 mg/kg/injection, schedule: Q01DX009 (ip), vehicle: saline 123 % of control | endpoint: median survival time, dose: 100.0 mg/kg/injection, schedule: Q01DX009 (ip), vehicle: saline 123 % of control

COc1ccc(-c2nc3ccc(C)cc3c(=O)o2)cc1
inactive: [6] 89 % of control | [2] 93 % of control | [4] 89 % of control

Nc1cccc[n+]1CC(O)C(=O)[O-] (stereo unspecified)
inactive: endpoint: mean survival time, dose: 50.0 mg/kg/injection, schedule: Q01DX001 (ip), vehicle: saline 107 % of control | [7] 98 % of control | [8] 101 % of control

CC/C=C\CC1OCCO1
inactive: [6] 95 % of control | [2] 92 % of control | [4] 95 % of control

COC(=O)NCCCCl
inactive: endpoint: mean survival time, dose: 37.5 mg/kg/injection, schedule: Q01DX007 (ip), vehicle: saline 94 % of control | endpoint: mean survival time, dose: 75.0 mg/kg/injection, schedule: Q01DX007 (ip), vehicle: saline 103 % of control | endpoint: mean survival time, dose: 150.0 mg/kg/injection, schedule: Q01DX007 (ip), vehicle: saline 97 % of control | endpoint: mean survival time, dose: 300.0 mg/kg/injection, schedule: Q01DX007 (ip), vehicle: saline 94 % of control | endpoint: mean survival time, dose: 600.0 mg/kg/injection, schedule: Q01DX007 (ip), vehicle: saline 94 % of control

O=[N+]([O-])c1ccc(N/N=C2/CCSc3ccccc32)cc1
inactive: [9] 102 % of control | [10] 101 % of control | [11] 95 % of control

O=C(OC1(c2c(F)c(F)c(F)c(F)c2F)C2C=CC1CC2)c1ccc([N+](=O)[O-])cc1 (stereo unspecified)
inactive: [12] 102 % of control | [13] 105 % of control | [14] 98 % of control | endpoint: mean survival time, dose: 400.0 mg/kg/injection, schedule: Q04DX002 (ip), vehicle: saline with Tween-80 90 % of control

CC(C)(C)C1=CC(=O)C(C(C)(C)C)=CC1=O
inactive: [1] 97 % of control | [3] 103 % of control

CNNCc1ccc(/C=N/NC(N)=S)cc1
inactive: endpoint: mean survival time, dose: 6.25 mg/kg/injection, schedule: Q01DX009 (ip), vehicle: water 96 % of control | [15] 98 % of control | endpoint: mean survival time, dose: 25.0 mg/kg/injection, schedule: Q01DX009 (ip), vehicle: water 100 % of control | endpoint: mean survival time, dose: 50.0 mg/kg/injection, schedule: Q01DX009 (ip), vehicle: water 86 % of control and 96 % of control | endpoint: mean survival time, dose: 100.0 mg/kg/injection, schedule: Q01DX009 (ip), vehicle: water 86 % of control and 96 % of control

Cc1cnc(Cl)c(Br)c1
inactive: [1] 96 % of control | [2] 104 % of control | [3] 101 % of control | [4] 100 % of control | [16] 95 % of control | [5] 106 % of control

Cc1ccc(C(=O)Nc2cccc(-n3cnc4c(=O)[nH]c(N)nc43)c2)cc1S(=O)(=O)F
inactive: [12] 90 % of control | [13] 101 % of control | [14] 86 % of control

OCC1OC(Oc2ccc(O)cc2)C(O)C(O)C1O (stereo unspecified)
inactive: endpoint: mean survival time, dose: 50.0 mg/kg/injection, schedule: Q01DX009 (ip), vehicle: saline 103 % of control | [7] 101 % of control | [9] 103 % of control | [8] 117 % of control | [10] 95 % of control | [17] 101 % of control | [11] 100 % of control

COC1(OC)C(Cl)=C(Cl)C2C1C1(Cl)C(Cl)=C(Cl)C2(Cl)C1(OC)OC (stereo unspecified)
inactive: [7] 106 % of control | endpoint: mean survival time, dose: 100.0 mg/kg/injection, schedule: Q04DX003 (ip), vehicle: saline 105 % of control | [8] 106 % of control | endpoint: mean survival time, dose: 200.0 mg/kg/injection, schedule: Q04DX003 (ip), vehicle: saline 103 % of control | [17] 102 % of control | endpoint: mean survival time, dose: 400.0 mg/kg/injection, schedule: Q04DX003 (ip), vehicle: saline 100 % of control

O=C(CO)C(O)C(O)C(O)C(O)CO (stereo unspecified)
inactive: [7] 100 % of control and 105 % of control | [8] 102 % of control and 94 % of control | [17] 96 % of control

O=C1c2ccccc2C(=O)N1Cc1cc([N+](=O)[O-])ccc1Cl
inactive: endpoint: mean survival time, dose: 50.0 mg/kg/injection, schedule: Q01DX009 (ip), vehicle: Klucel (hydroxypropylcellulose) (HPC) 92 % of control | endpoint: mean survival time, dose: 100.0 mg/kg/injection, schedule: Q01DX009 (ip), vehicle: Klucel (hydroxypropylcellulose) (HPC) 94 % of control | endpoint: mean survival time, dose: 200.0 mg/kg/injection, schedule: Q01DX009 (ip), vehicle: Klucel (hydroxypropylcellulose) (HPC) 90 % of control

CC(=O)/C(=C\c1ccc(/C=C(\C(C)=O)C(=O)CCN(C)C)cc1)C(=O)CCN(C)C
inactive: endpoint: median survival time, dose: 25.0 mg/kg/injection, schedule: Q01DX005 (ip), vehicle: saline with Tween-80 102 % of control | endpoint: median survival time, dose: 50.0 mg/kg/injection, schedule: Q01DX005 (ip), vehicle: saline with Tween-80 102 % of control | endpoint: median survival time, dose: 100.0 mg/kg/injection, schedule: Q01DX005 (ip), vehicle: saline with Tween-80 101 % of control | endpoint: median survival time, dose: 200.0 mg/kg/injection, schedule: Q01DX005 (ip), vehicle: saline with Tween-80 98 % of control | endpoint: median survival time, dose: 400.0 mg/kg/injection, schedule: Q01DX005 (ip), vehicle: saline with Tween-80 102 % of control

Nc1ccc(NC(=O)COc2cccc(Cl)c2)cc1
inactive: [1] 90 % of control | [3] 90 % of control | [16] 95 % of control

NC(N)=N/N=C\c1c2ccccc2cc2ccccc12
inactive: endpoint: mean survival time, dose: 0.78 mg/kg/injection, schedule: Q01DX009 (ip), vehicle: water 100 % of control | endpoint: mean survival time, dose: 1.56 mg/kg/injection, schedule: Q01DX009 (ip), vehicle: other 101 % of control | endpoint: mean survival time, dose: 1.56 mg/kg/injection, schedule: Q01DX009 (ip), vehicle: water 101 % of control | endpoint: mean survival time, dose: 3.13 mg/kg/injection, schedule: Q01DX009 (ip), vehicle: other 100 % of control | endpoint: mean survival time, dose: 3.13 mg/kg/injection, schedule: Q01DX009 (ip), vehicle: water 116 % of control | endpoint: mean survival time, dose: 6.25 mg/kg/injection, schedule: Q01DX009 (ip), vehicle: other 106 % of control | endpoint: mean survival time, dose: 12.5 mg/kg/injection, schedule: Q01DX009 (ip), vehicle: other 106 % of control | [15] 105 % of control | endpoint: mean survival time, dose: 25.0 mg/kg/injection, schedule: Q01DX009 (ip), vehicle: other 111 % of control

COc1ccc(CSc2nn(C3OC(COC(=O)c4ccccc4)C(OC(=O)c4ccccc4)C3OC(=O)c3ccccc3)c(=O)[nH]c2=S)cc1 (stereo unspecified)
inactive: endpoint: mean survival time, dose: 12.5 mg/kg/injection, schedule: Q01DX005 (ip), vehicle: distilled water + Tween-80 104 % of control | endpoint: mean survival time, dose: 25.0 mg/kg/injection, schedule: Q01DX005 (ip), vehicle: distilled water + Tween-80 101 % of control | endpoint: mean survival time, dose: 50.0 mg/kg/injection, schedule: Q01DX005 (ip), vehicle: distilled water + Tween-80 93 % of control | endpoint: mean survival time, dose: 100.0 mg/kg/injection, schedule: Q01DX005 (ip), vehicle: distilled water + Tween-80 93 % of control | endpoint: mean survival time, dose: 200.0 mg/kg/injection, schedule: Q01DX005 (ip), vehicle: distilled water + Tween-80 90 % of control

Cc1ccc(S(=O)(=O)OC2CCCCCCCCCCC2=O)cc1 (stereo unspecified)
inactive: endpoint: mean survival time, dose: 50.0 mg/kg/injection, schedule: Q04DX003 (ip), vehicle: other 97 % of control | endpoint: mean survival time, dose: 100.0 mg/kg/injection, schedule: Q04DX003 (ip), vehicle: other 93 % of control and 95 % of control | endpoint: mean survival time, dose: 200.0 mg/kg/injection, schedule: Q04DX003 (ip), vehicle: other 93 % of control | endpoint: mean survival time, dose: 400.0 mg/kg/injection, schedule: Q04DX003 (ip), vehicle: other 95 % of control

CCCCC(O)C(C)C (stereo unspecified)
inactive: [6] 100 % of control | [2] 103 % of control | [4] 106 % of control
